Source: US20120101163A1, “COMPOSITION FOR INHIBITING CANCER METASTASIS” (TAIPEI MEDICAL UNIVERSITY, priority 2010, published 2012)

What was measured:
[1] = system: matrix metalloproteinase-9; test: Gelatin gel zymography of PMA-induced HT 1080 cells, MMP-9 activity; assay type: cell-based, Human
Method: 4. Gelatin Gel Zymography (Shim et al., 2003; Park et al., 2005; Hwang et al., 2006)
(§1) HT 1080 cells with appropriate cell numbers were cultured in 60 mm culturing plates for 12 hours, respectively. After the cells were attached onto the bottom of the plate and formed a monolayer, the medium in the plate was removed. Fresh serum free mediums with different concentrations of a test sample were added to the plates, respectively, and 100 nM PMA was added to each plate to induce the cells to express great quantities of matrix metalloproteinase-2 and matrix metalloproteinase-9, and the plates were placed in a temperature of 37° C. for 24 hours. After centrifugation, each cultured supernatant were saved and mixed with SDS-sample buffer under the same protein contents which were then injected into a 10% SDS-polyacrylamide gel (containing 1 mg/ml gelatin) and then electrophoresed. After the electrophoresis was completed, the gel was taken out and washed with 20 mM Tris-HCl containing 25% isopropanol three times; 10 minutes per time. Then the gel was equilibrated with 20 mM Tris-HCl for 30 minutes, and finally an incubate buffer (5 mM CaCl2 and 1 mM ZnCl2) was added to the gel and reacted with the gel overnight. Then the gel was stained with coomassie blue, and positions having matrix metalloproteinase activity of the gel presented a white color.

HT 1080 cells = test: Cancer cell survival rate test (MTT); assay type: cell-based, Human; settings: different concentrations, 24 hours
Method: 3. Cancer Cell Survival Rate Test (Lambert et al., 1997; Yang et al., 2006)
A medium in a culturing plate containing cells grown covering the whole bottom of the culturing plate, was removed. The cells were washed with 10 ml of PBS, and then suspended and mixed well with 10 ml of medium (a part of the cells need to be suspended with Trypsin-EDTA buffer). The numbers of the cells were calculated by a hemocytometer, and the cells were diluted to an appropriate cell concentration and added into the wells of a 24 well culturing plate by an amount of 500 μl/well. The 24 well culturing plates were placed in an incubator at 37° C. in a humidified atmosphere containing 5% CO2. After the cells were attached onto the bottom of the wells, the medium in each well was removed, and fresh mediums with different concentrations of a test drug were added into wells, respectively (if the cells were suspension cells, the fresh medium may be added into the wells, directly). Then, the 24 well culturing plates were placed in an incubator at 37° C. in a humidified atmosphere containing 5% CO2 for 24 hours. After that, an upper medium in each well was removed. The cells were washed with a PBS buffer twice, and then an MTT solution which was prepared with a medium was added to each well. […] After that, an ELISA reader was used to determine the absorbance for each well at 600 nm.

[2] = system: matrix metalloproteinase-9; test: RT-PCR, MMP-9 gene expression in HT 1080 cells; assay type: cell-based, Human
Method: 7. RNA Extraction and Reverse Transcription-Polymerase Chain Reaction (RT-PCR)
HT 1080 cells with appropriate cell numbers were cultured in 60 mm culturing plates for 6 hours, respectively. After the cells were attached onto the bottom of the plate and formed a monolayer, the medium in the plate was removed. Fresh serum free mediums with different concentrations of a test sample were added to the plates, respectively, and 100 nM PMA was added to each plate to induce the cells to express great quantities of matrix metalloproteinase-2 and matrix metalloproteinase-9, and the plates were placed in a temperature of 37° C. for 6 hours. After that, the total RNA of the cells were extracted with the TRIzol reagent and reverse transcripted by a reverse transcriptase to synthesize cDNA. The synthesize cDNA was used as a template to perform GADPH, matrix metalloproteinase-2 and matrix metalloproteinase-9 PCR amplifications.

[3] = target: T1, matrix metalloproteinase-9 (Homo sapiens, UniProt P14780); test: Extracellular inhibition test on enzyme activity of secreted MMP-9 in cultured medium; assay type: biochemical; settings: cultured medium of PMA induced HT 1080, different concentrations, 24 hours
T1 construct: matrix metalloproteinase-2 and matrix metalloproteinase-9 were secreted from the PMA induced HT 1080; endogenous in cells; host or cells: HT 1080 cells induced with 100 nM PMA
T1 sequence (P14780 94-707): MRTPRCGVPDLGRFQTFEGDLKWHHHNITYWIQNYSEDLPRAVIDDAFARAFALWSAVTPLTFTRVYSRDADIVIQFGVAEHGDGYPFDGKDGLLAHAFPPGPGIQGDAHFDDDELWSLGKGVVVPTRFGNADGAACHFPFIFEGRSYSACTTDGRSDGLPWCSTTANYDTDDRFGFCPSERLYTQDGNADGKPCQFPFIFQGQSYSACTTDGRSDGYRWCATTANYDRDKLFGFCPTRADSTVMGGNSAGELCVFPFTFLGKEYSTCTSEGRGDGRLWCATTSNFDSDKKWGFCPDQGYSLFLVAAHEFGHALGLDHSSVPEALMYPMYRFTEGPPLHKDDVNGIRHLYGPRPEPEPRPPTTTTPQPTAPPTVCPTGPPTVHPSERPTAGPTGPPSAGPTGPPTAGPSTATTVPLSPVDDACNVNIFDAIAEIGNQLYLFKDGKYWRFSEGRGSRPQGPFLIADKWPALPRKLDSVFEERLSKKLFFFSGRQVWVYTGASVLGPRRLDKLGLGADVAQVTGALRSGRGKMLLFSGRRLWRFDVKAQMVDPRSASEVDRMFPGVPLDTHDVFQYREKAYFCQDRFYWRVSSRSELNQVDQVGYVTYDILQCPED
Method: as §1, with “Then the gel was equilibrated with 20 mM Tris-HCl for 30 minutes, and finally an incubate buffer (5 mM CaCl2 and 1 mM ZnCl2) was added to the gel and reacted with the gel overnight. Then the gel was stained with coomassie blue, and positions having matrix metalloproteinase activity of the gel presented a white color.” left out
HT 1080 cells were induced with PMA, and the cultured medium for culturing the HT 1080 cells therefrom was taken out and treated with the different concentrations of L-Glutamic acid γ-hydroxamate (DH) for 24 hours, respectively. After that the enzyme activities of the matrix metalloproteinase-2 and matrix metalloproteinase-9 in the medium were analyzed. […]

[4] = system: matrix metalloproteinase-2; test: Western blot analysis, MMP-2 protein expression in HT 1080 cells; assay type: cell-based, Human
Method: HT 1080 cells with appropriate cell numbers were cultured in 60 mm culturing plates for 12 hours, respectively. After the cells were attached onto the bottom of the plate and formed a monolayer, the medium in the plate was removed. Fresh serum-free mediums with different concentrations of a test drug were added to the plates, respectively, and 100 nM PMA was added to each plate to induce the cells to express great quantities of matrix metalloproteinase-2 and matrix metalloproteinase-9, and the plates were placed in a temperature of 37° C. for 24 hours. A quantitatively cultured supernatant in each plate was centrifuged or protein was extracted from cells in each plate to be quantitated, and then an SDS-sample buffer containing 2-ME was added therein to form a mixture. The mixture was injected into a 10% SDS-polyacrylamide gel […] and then electrophoresed. After electrophoresis was completed, the proteins in the gel were transferred to a PVDF membrane. The PVDF membrane was equilibrated with gelatin-NET at room temperature for 30 minutes. […]

[5] = about 0.1-2 mM, stated as embodiment, 'and/or' MMP-2

NC(CCC(=O)NO)C(=O)O [DH, L-Glutamic acid γ-hydroxamate]
protein activity of matrix metalloproteinase-9 secreted out of and left in HT 1080 cells ([1]; 0.4, 0.8, 1.2, and 1.6, 24 hours): also decreased | inhibition rate to the activity of matrix metalloproteinase-9 ([1]; HT 1080 cells treated 24 hours): greater than 50% | matrix metalloproteinase-9 inhibiting activity ([1]; HT 1080 cells, 0.4, 0.8, 1.2 and 1.6 mM, 24 hours): increased while the concentration thereof was increased | inhibition rate to the protein activity of matrix metalloproteinase-9 of a cancer cell [1, 5]: 40-70% | cytotoxicity to HT 1080 cells (HT 1080 cells): no significant cytotoxicity | gene expression (mRNA) of matrix metalloproteinase-9 ([2]; HT 1080 cells, 0.4, 0.8, 1.2, and 1.6, 6 hours, RT-PCR): decreased | inhibition rate to the gene transcriptional expression of matrix metalloproteinase-9 of a cancer cell [2, 5]: 20-80% | direct inhibition of enzyme activity of secreted matrix metalloproteinase-9 [3]: no inhibition | protein expression amount of matrix metalloproteinase-2 secreted out of and left in HT 1080 cells ([4]; 0.4, 0.8, 1.2, and 1.6, 24 hours, Western blotting): all decreased | inhibition rate to the protein expression amount of metalloproteinase-2 of a cancer cell ([4]; about 0.1-2 mM, stated as embodiment, 'and/or' MMP-9): 40-90%
